In PubChem BioAssay (NCI):
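These data come from cells grown in 96-well plates and exposed to compound for 48 hours at five concentrations. TGI marks complete inhibition of growth.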

Tests used:
Assay in all cases: DTP human tumour cell line panel, 48 h
[1] = test system: RXF 393 renal
[2] = test system: OVCAR-3 ovarian
[3] = test system: EKVX NSCLC
[4] = test system: MOLT-4 leukemia
[5] = test system: NCI-H522 lung
[6] = test system: DMS 114 small cell lung
[7] = test system: HCC-2998 colon
[8] = test system: HT29 colon
[9] = test system: KM12 colon
[10] = test system: SNB-75 CNS
[11] = test system: M14 melanoma
[12] = test system: UACC-257 melanoma
[13] = test system: LXFL 529 NSCLC
[14] = test system: KM20L2 colon
[15] = test system: U251 CNS
[16] = test system: HCT-15 colon
[17] = test system: NCI-H23 lung
[18] = test system: OVCAR-8 ovarian
[19] = test system: NCI-H460 lung
[20] = test system: DLD-1 colon
[21] = test system: SF-268 CNS
[22] = test system: SF-295 CNS
[23] = test system: HCT-116 colon
[24] = test system: RPMI-8226 leukemia
[25] = test system: K-562 leukemia
[26] = test system: SR leukemia
[27] = test system: SK-MEL-5 melanoma
[28] = test system: COLO 205 colon
[29] = test system: TK-10 renal
[30] = test system: ACHN renal
[31] = test system: LOX IMVI melanoma
[32] = test system: SK-MEL-28 melanoma
[33] = test system: CCRF-CEM leukemia
[34] = test system: OVCAR-4 ovarian
[35] = test system: HOP-62 NSCLC
[36] = test system: OVCAR-5 ovarian
[37] = test system: NCI-H226 lung
[38] = test system: SW-620 colon
[39] = test system: SK-MEL-2 melanoma
[40] = test system: M19-MEL melanoma
[41] = test system: MALME-3M melanoma
[42] = test system: HOP-18 NSCLC
[43] = test system: SN12C renal
[44] = test system: DMS 273 small cell lung
[45] = test system: UO-31 renal
[46] = test system: HOP-92 NSCLC
[47] = test system: CAKI-1 renal
[48] = test system: XF 498 CNS
[49] = test system: 786-0 renal
[50] = test system: A549 NSCLC
[51] = test system: SF-539 CNS
[52] = test system: SNB-78 CNS
[53] = test system: HL-60(TB) leukemia
[54] = test system: UACC-62 melanoma
[55] = test system: SK-OV-3 ovarian
[56] = test system: IGROV1 ovarian
[57] = test system: SNB-19 CNS
[58] = test system: A498 renal

`O=C1CN2C(Cl)(Cl)C2(c2ccccc2)c2cc(Cl)ccc2N1CC1CC1` (stereo unspecified) showed a TGI [1] of 35.9 µM, a TGI [2] of 33.8 µM and a TGI [3] of 89.1 µM. For the same compound, the TGI [4] was 54.8 µM, the TGI [5] was 38.2 µM and the TGI [6] was 85.8 µM. It also gave a TGI [7] of 33.4 µM, a TGI [8] of 44.9 µM and a TGI [9] of 30.2 µM. The TGI [10] was 94.8 µM, the TGI [11] was 36.6 µM and the TGI [12] was 40.9 µM. For the same compound, the TGI [13] was greater than 100 µM, the TGI [14] was 88.5 µM and the TGI [15] was 34.7 µM. The TGI [16] was 48.9 µM, the TGI [17] was 51.7 µM and the TGI [18] was 29.8 µM. It also gave a TGI [19] of 32 µM, a TGI [20] of 44.2 µM and a TGI [21] of 86.1 µM. The TGI [22] was 47.1 µM, the TGI [23] was 35.8 µM and the TGI [24] was 81.8 µM. It also gave a TGI [25] of 65.8 µM, a TGI [26] of 68.6 µM and a TGI [27] of 35.7 µM. It also gave a TGI [28] of 38.8 µM, a TGI [29] greater than 100 µM and a TGI [30] of 65.8 µM. For the same compound, the TGI [31] was 31.6 µM, the TGI [32] was 32.9 µM and the TGI [33] was 61.4 µM. The TGI [34] was greater than 100 µM, the TGI [35] was 50.3 µM and the TGI [36] was greater than 100 µM. For the same compound, the TGI [37] was 41.6 µM, the TGI [38] was greater than 100 µM and the TGI [39] was 33.4 µM. For the same compound, the TGI [40] was 93.8 µM, the TGI [41] was 32 µM and the TGI [42] was 81.2 µM. The TGI [43] was 35.5 µM, the TGI [44] was 63.2 µM and the TGI [45] was 66.6 µM. It also gave a TGI [46] of 26.2 µM and a TGI [47] greater than 100 µM.
Work on `[N-]=[N+]=Nc1ccccc1Oc1ccccc1` yielded a TGI [2] greater than 100 µM, a TGI [48] greater than 100 µM and a TGI [3] greater than 100 µM. It also gave a TGI [4] greater than 100 µM, a TGI [5] greater than 100 µM and a TGI [6] greater than 100 µM. For the same compound, the TGI [7] was greater than 100 µM, the TGI [8] was greater than 100 µM and the TGI [9] was greater than 100 µM. It also gave a TGI [10] greater than 100 µM, a TGI [11] greater than 100 µM and a TGI [12] greater than 100 µM. The TGI [13] was greater than 100 µM, the TGI [49] was greater than 100 µM and the TGI [14] was greater than 100 µM. The TGI [15] was greater than 100 µM, the TGI [50] was greater than 100 µM and the TGI [16] was greater than 100 µM. The TGI [17] was greater than 100 µM, the TGI [18] was greater than 100 µM and the TGI [19] was greater than 100 µM. The TGI [20] was greater than 100 µM, the TGI [51] was greater than 100 µM and the TGI [21] was greater than 100 µM. The TGI [52] was greater than 100 µM, the TGI [22] was greater than 100 µM and the TGI [53] was greater than 100 µM. It also gave a TGI [23] greater than 100 µM, a TGI [24] greater than 100 µM and a TGI [25] greater than 100 µM. It also gave a TGI [26] greater than 100 µM, a TGI [27] greater than 100 µM and a TGI [28] greater than 100 µM. The TGI [54] was greater than 100 µM, the TGI [29] was greater than 100 µM and the TGI [30] was greater than 100 µM. The TGI [31] was greater than 100 µM, the TGI [55] was greater than 100 µM and the TGI [32] was greater than 100 µM. It also gave a TGI [34] greater than 100 µM, a TGI [35] greater than 100 µM and a TGI [36] greater than 100 µM. It also gave a TGI [37] greater than 100 µM, a TGI [56] greater than 100 µM and a TGI [38] greater than 100 µM. The TGI [39] was greater than 100 µM, the TGI [40] was greater than 100 µM and the TGI [43] was greater than 100 µM. For the same compound, the TGI [44] was greater than 100 µM, the TGI [57] was greater than 100 µM and the TGI [45] was greater than 100 µM. For the same compound, the TGI [47] was greater than 100 µM and the TGI [58] was greater than 100 µM.
`C=CC1(CC)/C(=N\O)C(CC)(CC)C(=O)N1O` (stereo unspecified) gave a TGI [1] greater than 100 µM, a TGI [2] greater than 100 µM and a TGI [48] greater than 100 µM. It also gave a TGI [3] greater than 100 µM, a TGI [4] greater than 100 µM and a TGI [5] greater than 100 µM. The TGI [6] was greater than 100 µM, the TGI [7] was greater than 100 µM and the TGI [8] was greater than 100 µM. The TGI [9] was greater than 100 µM, the TGI [10] was greater than 100 µM and the TGI [11] was greater than 100 µM. The TGI [12] was greater than 100 µM, the TGI [13] was greater than 100 µM and the TGI [49] was greater than 100 µM. It also gave a TGI [14] greater than 100 µM, a TGI [15] greater than 100 µM and a TGI [50] greater than 100 µM. The TGI [16] was greater than 100 µM, the TGI [17] was greater than 100 µM and the TGI [18] was greater than 100 µM. For the same compound, the TGI [19] was greater than 100 µM, the TGI [20] was greater than 100 µM and the TGI [51] was greater than 100 µM. It also gave a TGI [52] greater than 100 µM, a TGI [22] greater than 100 µM and a TGI [53] greater than 100 µM. It also gave a TGI [23] greater than 100 µM, a TGI [24] greater than 100 µM and a TGI [25] greater than 100 µM. It also gave a TGI [26] greater than 100 µM, a TGI [27] greater than 100 µM and a TGI [28] greater than 100 µM. For the same compound, the TGI [54] was greater than 100 µM, the TGI [29] was greater than 100 µM and the TGI [30] was greater than 100 µM. For the same compound, the TGI [31] was greater than 100 µM, the TGI [55] was greater than 100 µM and the TGI [32] was greater than 100 µM. For the same compound, the TGI [33] was greater than 100 µM, the TGI [34] was greater than 100 µM and the TGI [35] was greater than 100 µM. The TGI [36] was greater than 100 µM, the TGI [37] was greater than 100 µM and the TGI [56] was greater than 100 µM. The TGI [38] was greater than 100 µM, the TGI [39] was greater than 100 µM and the TGI [40] was greater than 100 µM. For the same compound, the TGI [41] was greater than 100 µM, the TGI [43] was greater than 100 µM and the TGI [44] was greater than 100 µM. For the same compound, the TGI [57] was greater than 100 µM, the TGI [45] was greater than 100 µM and the TGI [46] was greater than 100 µM. For the same compound, the TGI [47] was greater than 100 µM and the TGI [58] was greater than 100 µM.
